# Source: US12622910B2, “Inhibitors of Bruton's tyrosine kinase and methods of their use” (Janssen Pharmaceutica NV, priority 2021, dated 2026)
# Columns and labels:
# BMX = molecular target: T1, BMX (Homo sapiens, UniProt P51813); test: Eurofins KinaseProfiler/IC50Profiler radiometric kinase activity assay; assay type: biochemical
# T1 construct: purchased Eurofins Scientific
# Experimental: (§1) RESULTS AND DISCUSSION—Selectivity—The compound of Formula (III) was evaluated in three selectivity panels to assess the potential for off-target pharmacology (Table 8). […] The kinase off-target profile of The compound of Formula (III) was assessed in a full human wild-type panel using radiometric kinase activity assays (KinaseProfiler™ and IC50Profiler™; Eurofins Scientific) (Table 9; FIG. 23). The compound of Formula (III) inhibited 4/278 kinases >50% at 1 micromolar, identifying BTK and the three other kinases having analogous Cys residues with the potential for covalent inhibition (BMX, TEC, BLK). […]. The cellular kinase selectivity of The compound of Formula (III) was established in native Ramos B cell kinome assays (KiNativ™; ActivX) confirmed BTK as the primary target with inhibition of BLK and TEC inhibition detected (Table 10).
# BTK = BTK (Homo sapiens, UniProt Q06187); test: as above; assay type: biochemical
# Experimental: as §1
# [1] = Blood-to-plasma concentration ratio; assay type: in vitro ADME; conditions: monkey, fresh blood
# [2] = Blood-to-plasma concentration ratio; assay type: in vitro ADME; conditions: mouse, fresh blood
# [3] = Blood-to-plasma concentration ratio; assay type: in vitro ADME; conditions: rat, fresh blood
# [4] = Metabolic stability in liver microsomes; assay type: in vitro ADME, dog
# Experimental: Additional Data on Preclinical PK Profile—Protein binding of the compound of Formula (III) was studied using an equilibrium dialysis method in plasma from human, cynomolgus monkey, beagle dog, Sprague Dawley rat, CD-1 mouse, and guinea pig at 0.25, 2.5, and 25 μM. […] In human and monkey, the plasma protein binding was concentration dependent. […] Free fraction of the compound of Formula (III) in liver microsomes from various species ranged from 75.1% to 87.9% at 0.25 mg/mL and from 58.9% to 86.5% at 1.0 mg/mL (Table 17). […] In hepatocytes, the compound of Formula (III) turnover followed a similar trend, with T1/2 ranging from 75.3 minutes in monkey to 278.1 minutes in human.
# [5] = Intestinal microsomal stability; assay type: in vitro ADME; conditions: intestinal microsomes
# From the text: In human hepatocytes, the compound of Formula (III) is metabolized by CYP3A through mono-oxidations and N-dealkylations and by GSH conjugation to its acrylamide functionality. It bears moderate metabolic stability in hepatocytes across species and is slowly metabolized in human intestinal microsomes fortified with NADPH.
# CYP3A4 (CYP3A) = CYP3A4 (CYP3A) (Homo sapiens, UniProt P08684); test: Time-dependent inhibition of CYP3A in human liver microsomes; assay type: in vitro ADME; conditions: probe testosterone
# Experimental: To assess the potential of the compound of Formula (III) to be a time-dependent inhibitor of CYP3A, human liver microsomes were preincubated for 30 minutes at 37° C. with the compound of Formula (III) at concentrations up to 10 μM, and CYP3A activity was measured using testosterone as a probe substrate. […] The potential of the compound of Formula (III) to induce CYPs at the transcriptional level was assessed using Puracyp™ DPX2 (CYP3A4, PXR) and DRE (CYP1A2, AhR) luciferase-reporter cell lines; rifampicin and omeprazole were used as positive controls for CYP3A and CYP1A induction, respectively. The activation by the compound of Formula (III) was <20% of positive control values for PXR (6.6% and 14.1% at 1 and 10 μM change, respectively) or AhR (0.1% and 0.3% change, respectively). […] Potential involvement of various CYP isoforms in the metabolism of the compound of Formula (III) was investigated by measuring the parent compound remaining after 1-hour incubation with the compound of Formula (III) (1 μM) with recombinant CYPs (rCYPs) at 100 pmol P450/mL in the presence of 1 mM NADPH at 37° C. The only isozyme that produced notable the compound of Formula (III) turnover with <1% parent remaining after 1-hour incubation was CYP3A4 (FIG. 24). […]
# CYP1A = test: CYP induction in plated human hepatocytes, phenacetin probe; assay type: in vitro ADME; conditions: 48 hours
# [6] = Preclinical PK, oral and IV; conditions: dog, in vivo
# [7] = system: IL-6 secretion, ABC-DLBCL OCI-LY-10 cells; test: IL-6 secretion by OCI-LY-10 cells (MesoScale); assay type: cell-based; conditions: Homo sapiens, OCI-Ly10; 6 independent experiments; read-out: IC50, IL-6 secretion (mean±SEM)
# Experimental: (§2) In Vitro Activity in DLBCL Cell Lines—NFκB signaling regulates the secretion of multiple cytokines, including interleukin (IL)-6 and IL-10. Secretion of IL-6 and -10 by ABC-DLBCL OCI-LY-10 cells was measured using a MesoScale assay. […] To determine the anti-proliferative activity of the compound of formula (III), several ABC-DLBCL cell lines—OCI-LY-3, OCI-LY-10, TMD8, and HBL-1—were treated for 8 days. […] The OCI-LY-3 cell line, which harbors a CARD11 mutation downstream of BTK in the NF-κB signaling pathway, was completely insensitive to the compound of Formula (III) up to 2 μM. In 2 experiments, OCI-LY-3 cells were insensitive to the compound of Formula (III) at all concentrations up to 10 μM.
# [8] = system: OCI-LY3 (Myd88/CARD11/A20 mutant); test: Antiproliferative activity, 8 days; assay type: cell-based, human
# Experimental: as §2
# [9] = 10-point concentration response, read-out: IC50 (IC50 Profiler)
# T1 sequence (P51813 whole entry): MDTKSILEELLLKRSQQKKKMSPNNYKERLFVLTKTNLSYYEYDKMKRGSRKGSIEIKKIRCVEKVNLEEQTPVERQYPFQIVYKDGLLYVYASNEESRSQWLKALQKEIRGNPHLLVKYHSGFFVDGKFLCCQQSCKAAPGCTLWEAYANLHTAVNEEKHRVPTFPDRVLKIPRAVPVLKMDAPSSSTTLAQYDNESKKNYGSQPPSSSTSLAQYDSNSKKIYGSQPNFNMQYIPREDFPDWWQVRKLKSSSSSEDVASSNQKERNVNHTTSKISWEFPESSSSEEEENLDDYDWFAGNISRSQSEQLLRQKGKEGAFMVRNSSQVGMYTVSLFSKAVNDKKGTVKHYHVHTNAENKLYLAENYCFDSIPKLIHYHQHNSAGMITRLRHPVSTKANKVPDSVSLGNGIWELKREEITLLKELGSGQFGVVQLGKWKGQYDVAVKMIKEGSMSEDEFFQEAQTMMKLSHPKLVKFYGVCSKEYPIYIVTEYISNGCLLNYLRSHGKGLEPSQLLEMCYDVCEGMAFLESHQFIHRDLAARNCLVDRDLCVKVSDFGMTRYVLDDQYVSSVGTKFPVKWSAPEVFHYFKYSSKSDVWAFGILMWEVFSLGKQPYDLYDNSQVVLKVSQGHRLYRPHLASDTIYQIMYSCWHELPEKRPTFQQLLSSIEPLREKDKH
# CYP3A4 (CYP3A), sequence (P08684 2-503): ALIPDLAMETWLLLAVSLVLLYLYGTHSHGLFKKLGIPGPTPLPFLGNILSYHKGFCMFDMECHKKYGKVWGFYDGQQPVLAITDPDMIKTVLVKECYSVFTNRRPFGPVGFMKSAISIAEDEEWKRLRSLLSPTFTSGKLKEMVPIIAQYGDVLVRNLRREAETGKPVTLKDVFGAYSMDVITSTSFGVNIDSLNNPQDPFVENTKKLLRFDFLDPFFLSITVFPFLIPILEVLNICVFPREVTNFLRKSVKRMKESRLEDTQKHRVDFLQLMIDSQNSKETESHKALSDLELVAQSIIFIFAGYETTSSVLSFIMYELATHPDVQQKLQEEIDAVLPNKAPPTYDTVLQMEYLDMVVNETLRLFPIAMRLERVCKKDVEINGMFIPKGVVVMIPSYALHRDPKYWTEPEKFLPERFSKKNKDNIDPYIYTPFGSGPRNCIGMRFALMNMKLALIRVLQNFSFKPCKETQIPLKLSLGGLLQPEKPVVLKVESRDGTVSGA
# BTK, sequence (Q06187 whole entry): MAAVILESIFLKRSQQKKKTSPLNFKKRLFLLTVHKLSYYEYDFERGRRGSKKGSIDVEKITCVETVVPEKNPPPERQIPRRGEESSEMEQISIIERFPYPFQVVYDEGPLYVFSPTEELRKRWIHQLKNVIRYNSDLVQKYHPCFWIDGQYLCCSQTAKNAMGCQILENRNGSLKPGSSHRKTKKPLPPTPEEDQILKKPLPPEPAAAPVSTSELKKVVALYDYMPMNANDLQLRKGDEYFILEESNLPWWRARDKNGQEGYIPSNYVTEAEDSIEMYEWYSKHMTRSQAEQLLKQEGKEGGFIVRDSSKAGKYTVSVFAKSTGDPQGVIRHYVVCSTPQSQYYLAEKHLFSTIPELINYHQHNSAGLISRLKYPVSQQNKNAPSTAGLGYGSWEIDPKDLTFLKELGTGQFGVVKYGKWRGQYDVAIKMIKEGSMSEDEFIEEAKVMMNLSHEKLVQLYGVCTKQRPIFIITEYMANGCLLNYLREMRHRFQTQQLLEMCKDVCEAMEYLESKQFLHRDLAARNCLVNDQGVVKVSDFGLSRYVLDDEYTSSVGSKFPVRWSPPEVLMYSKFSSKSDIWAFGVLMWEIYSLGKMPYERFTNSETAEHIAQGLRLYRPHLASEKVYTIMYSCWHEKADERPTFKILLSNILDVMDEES
smiles,measurement,setting,value
"C=CC(=O)N[C@H]1CCC[C@H]1NC(=O)c1sc2nccc3c2c1NC(=O)N3c1cnc(CC(C)C)cc1C (atropisomer, axis not shown) [compound of Formula (III), N-((1R,2S)-2-Acrylamidocyclopentyl)-5-(S)-(6-isobutyl-4-methylpyridin-3-yl)-4-oxo-4,5-dihydro-3H-1-thia-3,5,8-triazaacenaphthylene-2-carboxamide]",inhibition at 1 µM,BMX; 1 μM,92%
same,IC50,BMX; [9],172 nM
same,inhibition at 1 µM,BTK; 1 μM,98%
same,IC50,BTK; [9],558 nM
same,blood plasma ratio at 1 μM,[1],0.69
same,blood plasma ratio at 1 μM,[2],0.84
same,blood plasma ratio at 1 μM,[3],1.37
same,"Extraction Ratio, liver microsomes",[4]; Dog,0.65
same,microsomal CLint,"[4]; dog, liver microsomes",40.6 µL/min/mg
same,half-life,"[4]; dog, liver microsomes, read-out: T1/2, liver microsomes",17.1 min
same,microsomal CLint,"[5]; Sprague Dawley, rat",< 3.9 µL/min/mg
same,microsomal CLint,"[5]; beagle, dog",< 3.9 µL/min/mg
same,microsomal CLint,[5]; human,14.1 µL/min/mg
same,IC50,CYP3A4 (CYP3A); with 30 min preincubation,9810 nM
same,IC50,CYP3A4 (CYP3A); without preincubation,> 10000 nM
same,change in CYP1A enzyme activity,CYP1A; 1 μM,0.2%
same,change in CYP1A enzyme activity,CYP1A; 10 μM,1.0%
same,clearance,[6]; iv,11 ± 3 mL/min/kg
same,half-life,"[6]; iv, read-out: IV T1/2 (converted)",66 ± 6 min
same,Vd,"[6]; iv, read-out: Vss",0.8 ± 0.2 L/kg
same,Cmax,[6]; oral,890 ± 286 ng/mL
same,Tmax,[6]; oral,48 ± 18 min
same,AUC(0-inf),"[6]; oral, read-out: Oral AUCinf",1960 ± 421 ng·h/mL
same,IC50,[7],16 ± 3 nM
same,sensitivity at all concentrations up to 10 μM,[8]; 2 experiments,insensitive
same,IC50,"[8]; Homo sapiens, OCI-Ly3, 192 h, 8 days, n = 4",> 2000 nM
